Test results published in article PMC11594562, “Novel Peptide–Drug Conjugates with Dual Anticancer Activity” (International Journal of Molecular Sciences, 2024).
Like-named read-outs stand apart in the source and are kept apart here. Residues, ends and D or L forms follow the SMILES beside them.

Assays:
[1] = biological target: Tyrosyl-DNA-phosphodiesterase 1 (TDP1); conditions: Figure 1; cited from earlier work
TDP1 = biological target: T1, TDP1 (Homo sapiens, UniProt Q9NUW8); experiment: biochemical; assay type: biochemical; conditions: for Increase in TDP1 IC50 compared to parent TDP1 inhibitor: conjugate 7 vs 4, conjugate 8 vs 5
T1 construct: made in house; host or cells: E. coli
T1 sequence (Q9NUW8 whole entry): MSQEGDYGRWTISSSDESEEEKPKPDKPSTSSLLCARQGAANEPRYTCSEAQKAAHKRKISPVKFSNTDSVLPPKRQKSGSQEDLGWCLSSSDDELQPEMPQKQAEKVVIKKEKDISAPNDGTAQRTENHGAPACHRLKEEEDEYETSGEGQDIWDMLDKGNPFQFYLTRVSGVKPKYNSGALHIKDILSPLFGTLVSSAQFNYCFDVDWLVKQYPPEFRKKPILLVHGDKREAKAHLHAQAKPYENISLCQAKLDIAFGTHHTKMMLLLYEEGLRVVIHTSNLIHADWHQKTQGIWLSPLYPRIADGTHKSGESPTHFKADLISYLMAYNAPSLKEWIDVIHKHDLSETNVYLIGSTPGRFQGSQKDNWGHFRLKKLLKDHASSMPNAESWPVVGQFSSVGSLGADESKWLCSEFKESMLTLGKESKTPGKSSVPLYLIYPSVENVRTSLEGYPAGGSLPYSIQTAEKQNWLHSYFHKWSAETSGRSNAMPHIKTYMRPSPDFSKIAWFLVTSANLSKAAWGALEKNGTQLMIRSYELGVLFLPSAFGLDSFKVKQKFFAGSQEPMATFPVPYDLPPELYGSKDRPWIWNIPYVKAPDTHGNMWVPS
Procedure: These conjugates and their individual components were tested in a real-time fluorescent assay of TDP1 inhibition.
Recombinant TDP1 protein was expressed in E. coli (the pET 16B plasmid containing TDP1 cDNA was kindly provided by Dr. K.W. Caldecott, University of Sussex, United Kingdom) and isolated as described in [60]. The final volume (200 μL) of the reaction mixture contained TDP1 reaction buffer (50 mM Tris-HCl, pH 8.0, 50 mM NaCl, 7 mM β-mercaptoethanol), 50 nM oligonucleotide substrate, and varied concentrations of the tested compounds. Purified TDP1 was added at a final concentration of 1.5 nM. The TDP1 reaction mixtures were incubated at a constant temperature of 26 °C in a POLARstar OPTIMA fluorimeter (BMG LABTECH, Offenburg, Germany). The fluorescence intensity was measured (Ex. 485/Em. 520 nm) every 1 min for 10 minutes. The efficiency of TDP1 inhibition was evaluated by comparing the rate of increase in the fluorescence of the biosensor in the presence of compound 4 or 5 to that of DMSO (1.5%) in control wells. IC50 values were determined using an eleven-point concentration response curve by MARS Data Analysis 2.0 (BMG LABTECH), and the slope during the linear phase was calculated. The IC50 measurements were carried out in at least three independent experiments.

[2] = test system: MCF-7 (adenocarcinoma) cells; experiment: MTT cytotoxicity assay, MCF-7 cells; conditions: for GI50: Homo sapiens, MCF7, 48 h, read-out: Cytotoxic dose GI50; for Cytotoxic dose GI80 / Cytotoxic dose GI90: MCF-7, 48 h, MTT
Procedure: (§1) Next, the conjugates and their parent agents were evaluated in a cytotoxicity assay. Human glioblastoma (SNB19, T98G) and adenocarcinoma (MCF-7) cell lines were used in this study.
(§2) Human cancer cells of the SNB19, T98G (cells of human glioblastoma), and MCF-7 (adenocarcinoma) lines, along with cells derived from the kidney of an African green monkey (Vero), were used in this study. These cell lines were obtained from the cell collection of the State Research Center for Virology and Biotechnology “Vector” of Rospotrebnadzor, Koltsovo, Novosibirsk Region. They were cultured in DMEM/F12 medium containing 10% foetal bovine serum, L-glutamine (2 mmol/L), and gentamicin (80 µg/mL) in a CO2 incubator at 37 °C. The tested compounds were dissolved in DMSO (4 and 5) or H2O (6, 7, and 8) and added to the cellular culture at the required concentrations. Three wells were used for each concentration. The cells that were incubated without the compounds were used as controls. Cells were placed in 96-well microplates and cultivated at 37 °C in 5% CO2/95% air for 48 h. The cell viability was assessed through an MTT [3-(4,5-dimethylthiazol-2-yl)-2,5-phenyl-2H-tetrazolium bromide] conversion assay, where 1% MTT was added to each well. Four hours later, the medium was removed, leaving the formazan crystals, and isopropanol was added and mixed for 15 min. The optical density of the samples was measured on a TECAN Sunrise multi-well spectrophotometer at a wavelength of 570 nm, with a reference of 670 nm. The 50% cytotoxic dose (GI50) of each compound (i.e., the compound concentration that lowers the amount of cells to 50% in a culture, or decreases the optical density twofold as compared to the control wells) was calculated from the obtained data. Statistical processing of the results was performed using the Microsoft Excel-2007, […] 6.0, and GraphPad Prism 5.0 programs.

SNB19 glioblastoma cells = experiment: MTT cytotoxicity assay, SNB19 cells; conditions: for GI50: Homo sapiens, SNB-19, 48 h, read-out: Cytotoxic dose GI50; for Cytotoxic dose GI80 / Cytotoxic dose GI90: SNB19, 48 h, MTT
Procedure: as §1, §2

[3] = Solubility in water / DMSO; assay type: physicochemical; conditions: water vs DMSO
Description: Three wells were used for each concentration.

T98G glioblastoma cells = experiment: MTT cytotoxicity assay, T98G cells; conditions: T98G, 48 h; for GI50: Homo sapiens, read-out: Cytotoxic dose GI50; for Cytotoxic dose GI80 / Cytotoxic dose GI90: MTT
Procedure: as §1, §2

Vero cells = experiment: MTT cytotoxicity assay, non-malignant Vero cells; conditions: Vero, 48 h, MTT
Description: (§3) Against the T98G glioblastoma cells, the conjugation yields activities that are intermediate between those of the usnic acid and peptide components for both the hydrazinothiazole- and benzylidenefuranone-based candidates (4 and 5, respectively).
as §2

[4] = MTT cytotoxicity assay, non-malignant Vero cells; conditions: African green monkey
Description: as §3, §2

[5] = MTT cytotoxicity assay, MCF-7 cells; conditions: human, MCF-7 adenocarcinoma cells
Procedure: as §1, §2

[6] = MTT cytotoxicity assay, SNB19 cells; conditions: human, SNB19 glioblastoma cells
Procedure: as §1, §2

[7] = MTT cytotoxicity assay, T98G cells; conditions: human
Procedure: as §1, §2

MCF-7 cells = conditions: native L-K6 sequence; read-out: IC50 (cytotoxicity of native sequence); cited from earlier work
[8] = Vero cells (non-malignant kidney cell line)
[9] = recombinant TDP1 1.5 nM, 50 nM substrate, 26 °C

Row | Compound | IC50 [1] [µM] | Cytotoxic dose GI80 [2] [µM] | Cytotoxic dose GI90 [2] [µM] | Cytotoxic dose GI80 (SNB19 glioblastoma cells) [µM] | Cytotoxic dose GI90 (SNB19 glioblastoma cells) [µM] | Cytotoxic dose GI80 (T98G glioblastoma cells) [µM] | Cytotoxic dose GI90 (T98G glioblastoma cells) [µM] | Cytotoxic dose GI80 (Vero cells) [µM] | Cytotoxic dose GI90 (Vero cells) [µM] | GI50 at 48 h [5] [µM] | GI50 at 48 h [6] [µM] | GI50 at 48 h [7] [µM] | GI50 at 48 h ([4]; Vero cells) [µM] | also measured
1 | CC(=O)c1c(O)c(C)c(O)c2c1OC1=CC(=O)/C(=C(/C)NCCCc3cc(C(C)(C)C)c(O)c(C(C)(C)C)c3)C(=O)[C@@]12C [Compound 2, reference compound] | 0.16 |  |  |  |  |  |  |  |  |  |  |  |  | 
2 | CC(=O)C1=C(O)C=C2Oc3c(C(=O)CSC#N)c(O)c(C)c(O)c3[C@@]2(C)C1=O [Compound 3, reference compound] | 1.16 |  |  |  |  |  |  |  |  |  |  |  |  | 
3 | CC(=O)C1=C(O)C=C2Oc3c(-c4csc(N/N=C/c5ccc(Br)cc5)n4)c(O)c(C)c(O)c3[C@@]2(C)C1=O [Compound 4] | 0.026 | 4.7 ± 0.21 | 5.5 ± 0.41 | 61 ± 1.78 | 83 ± 1.87 | 51 ± 1.08 | 90 ± 3.94 | 48 ± 16.76 | >100 |  |  |  |  | IC50 (TDP1): 0.026 ± 0.011 µM; GI50 [2]: 2.8 ± 0.07 µM; GI50 (SNB19 glioblastoma cells): 20.5 ± 2.27 µM; Solubility [3]: require DMSO for solubility; GI50 (T98G glioblastoma cells): 10.1 ± 0.67 µM; GI50 at 48 h [4, 8]: 4.1 ± 1.66 µM
4 | CC(=O)C1=C(O)C=C2Oc3c4c(c(C)c(O)c3[C@@]2(C)C1=O)O/C(=C\c1ccc(Br)cc1)C4=O [Compound 5] | 0.15 | 3.9 ± 0.87 | 4.7 ± 1.59 | >100 | >100 | >100 | >100 | >100 | >100 |  |  |  |  | IC50 (TDP1; [9]): 0.15 ± 0.03 µM; GI50 [2]: 2.2 ± 0.31 µM; GI50 (SNB19 glioblastoma cells): > 100 µM; Solubility [3]: require DMSO for solubility; GI50 (T98G glioblastoma cells): 21 ± 2.6 µM; GI50 at 48 h [4, 8]: > 100 µM
5 | CC[C@H](C)[C@H](NC(=O)CNN)C(=O)N[C@@H](CCCCN)C(=O)N[C@@H](CCCCN)C(=O)N[C@H](C(=O)N[C@@H](CC(C)C)C(=O)N[C@@H](CO)C(=O)N[C@@H](CCCCN)C(=O)N[C@H](C(=O)N[C@@H](CCCCN)C(=O)N[C@@H](CCCCN)C(=O)N[C@@H](CC(C)C)C(=O)N[C@@H](CC(C)C)C(=O)N[C@@H](CCCCN)C(N)=O)[C@@H](C)CC)[C@@H](C)CC [Compound 6] (HELM PEPTIDE1{[NNCC(=O)[*:2]].I.K.K.I.L.S.K.I.K.K.L.L.K.[am]}$$$$V2.0) |  | 81 ± 16 | >100 | >100 | >100 | >100 | >100 | >100 | >100 | 39 ± 6.08 | > 100 | > 100 | 64 ± 13.7 | IC50 (TDP1; [9]): 1.8 ± 0.6 µM
6 | CC[C@H](C)[C@H](NC(=O)Cn1nc(C)c2c1C=C1Oc3c(-c4csc(N/N=C/c5ccc(Br)cc5)n4)c(O)c(C)c(O)c3[C@@]1(C)C2=O)C(=O)N[C@@H](CCCCN)C(=O)N[C@@H](CCCCN)C(=O)N[C@H](C(=O)N[C@@H](CC(C)C)C(=O)N[C@@H](CO)C(=O)N[C@@H](CCCCN)C(=O)N[C@H](C(=O)N[C@@H](CCCCN)C(=O)N[C@@H](CCCCN)C(=O)N[C@@H](CC(C)C)C(=O)N[C@@H](CC(C)C)C(=O)N[C@@H](CCCCN)C(N)=O)[C@@H](C)CC)[C@@H](C)CC [Compound 7] (HELM PEPTIDE1{[Cc1nn(CC(=O)[*:2])c2c1C(=O)[C@@]1(C)C(=C2)Oc2c(-c3csc(N/N=C/c4ccc(Br)cc4)n3)c(O)c(C)c(O)c21].I.K.K.I.L.S.K.I.K.K.L.L.K.[am]}$$$$V2.0) |  | >100 | >100 | 68 ± 3.34 | >100 | 82 ± 1.78 | >100 | >100 | >100 | 65 ± 15.3 | 18 ± 0.35 | 42 ± 3.02 | 33 ± 3.53 | Increase in TDP1 IC50 compared to parent TDP1 inhibitor (TDP1): approximately 6.5 fold
7 | CC[C@H](C)[C@H](NC(=O)Cn1nc(C)c2c1C=C1Oc3c4c(c(C)c(O)c3[C@@]1(C)C2=O)O/C(=C\c1ccc(Br)cc1)C4=O)C(=O)N[C@@H](CCCCN)C(=O)N[C@@H](CCCCN)C(=O)N[C@H](C(=O)N[C@@H](CC(C)C)C(=O)N[C@@H](CO)C(=O)N[C@@H](CCCCN)C(=O)N[C@H](C(=O)N[C@@H](CCCCN)C(=O)N[C@@H](CCCCN)C(=O)N[C@@H](CC(C)C)C(=O)N[C@@H](CC(C)C)C(=O)N[C@@H](CCCCN)C(N)=O)[C@@H](C)CC)[C@@H](C)CC [Compound 8] (HELM PEPTIDE1{[Cc1nn(CC(=O)[*:2])c2c1C(=O)[C@@]1(C)C(=C2)Oc2c3c(c(C)c(O)c21)O/C(=C\c1ccc(Br)cc1)C3=O].I.K.K.I.L.S.K.I.K.K.L.L.K.[am]}$$$$V2.0) |  | 72 ± 2.4 | >100 | 56 ± 0.7 | 85 ± 2.32 | 80 ± 2.86 | >100 | >100 | >100 | 36 ± 1.24 | 16.5 ± 0.35 | 38 ± 1.22 | 18 ± 3.18 | Increase in TDP1 IC50 compared to parent TDP1 inhibitor (TDP1): ~2.3 fold; GI50 at 48 h ([6]; Cytotoxic dose GI50, SNB19, 48 h, MTT): 16 µM
8 | L-K6 (IKKILSKIKKLLK; HELM PEPTIDE1{[NNCC(=O)[*:2]].I.K.K.I.L.S.K.I.K.K.L.L.K.[am]}$$$$V2.0; N-terminus assumed; SMILES CC[C@H](C)[C@H](NC(=O)CNN)C(=O)N[C@@H](CCCCN)C(=O)N[C@@H](CCCCN)C(=O)N[C@H](C(=O)N[C@@H](CC(C)C)C(=O)N[C@@H](CO)C(=O)N[C@@H](CCCCN)C(=O)N[C@H](C(=O)N[C@@H](CCCCN)C(=O)N[C@@H](CCCCN)C(=O)N[C@@H](CC(C)C)C(=O)N[C@@H](CC(C)C)C(=O)N[C@@H](CCCCN)C(N)=O)[C@@H](C)CC)[C@@H](C)CC) |  |  |  |  |  |  |  |  |  |  |  |  |  | IC50 (MCF-7 cells): 23 µM
